# Data from PubChem BioAssay AID214 (DTP/NCI, 2004).
# “And” between values parts separate entries of the source, which are not always exact repeats. Equal entries are not always repeated. Inconclusive results are not listed.
# Test system: B6C3F1 mice, colon carcinoma 38 s.c., T/C
# Test: NCI In Vivo Anticancer Drug Screen. Data for tumor model Colon Carcinoma 38 (subcutaneous) in B6C3F1 mice
# Description: The antitumor activity of compounds was measured in mice bearing transplantable tumors. Survival or tumor size were measured and the results are expressed as the measurement made in the treated group (T) divided by the measurement made in the vehicle treated control group (C). The tumor model used in this assay is Colon Carcinoma 38 (subcutaneous) in B6C3F1 mice
# [1] = endpoint: median tumor weight (est.), dose: 50.0 mg/kg/injection, schedule: Q07DX002 (ip), vehicle: saline with Tween-80, higher = larger tumour
# [2] = endpoint: median tumor weight (est.), dose: 100.0 mg/kg/injection, schedule: Q07DX002 (ip), vehicle: saline with Tween-80, higher = larger tumour
# [3] = endpoint: median tumor weight (est.), dose: 200.0 mg/kg/injection, schedule: Q07DX002 (ip), vehicle: saline with Tween-80, higher = larger tumour
# [4] = endpoint: median tumor weight (est.), dose: 400.0 mg/kg/injection, schedule: Q07DX002 (ip), vehicle: saline with Tween-80, higher = larger tumour
# [5] = endpoint: median tumor weight (est.), dose: 800.0 mg/kg/injection, schedule: Q07DX002 (ip), vehicle: saline with Tween-80, higher = larger tumour
smiles,measurement,setting,value
CCN(CC)CCOC(=O)Cc1cccc2c(=O)cc(-c3ccccc3)oc12,T/C,"endpoint: median survival time, dose: 3.12 mg/kg/injection, schedule: Q01DX001 (iv), vehicle: saline, higher = longer survival",101 % of control
same,T/C,"endpoint: median survival time, dose: 3.12 mg/kg/injection, schedule: Q07DX002 (iv), vehicle: saline, higher = longer survival",102 % of control
same,T/C,"endpoint: median survival time, dose: 6.25 mg/kg/injection, schedule: Q01DX001 (iv), vehicle: saline, higher = longer survival",102 % of control
same,T/C,"endpoint: median survival time, dose: 6.25 mg/kg/injection, schedule: Q07DX002 (iv), vehicle: saline, higher = longer survival",106 % of control
same,T/C,"endpoint: median survival time, dose: 15.82 mg/kg/injection, schedule: Q07DX002 (iv), vehicle: saline, higher = longer survival",92 % of control
same,T/C,"endpoint: median survival time, dose: 21.09 mg/kg/injection, schedule: Q01DX001 (iv), vehicle: saline, higher = longer survival",101 % of control
same,T/C,"endpoint: median survival time, dose: 21.09 mg/kg/injection, schedule: Q07DX002 (iv), vehicle: saline, higher = longer survival",96 % of control
same,T/C,"endpoint: median survival time, dose: 25.0 mg/kg/injection, schedule: Q07DX002 (iv), vehicle: saline, higher = longer survival",87 % of control
same,T/C,"endpoint: median survival time, dose: 28.13 mg/kg/injection, schedule: Q01DX001 (iv), vehicle: saline, higher = longer survival",100 % of control
same,T/C,"endpoint: median survival time, dose: 28.13 mg/kg/injection, schedule: Q07DX002 (iv), vehicle: saline, higher = longer survival",121 % of control
same,T/C,"endpoint: median survival time, dose: 37.5 mg/kg/injection, schedule: Q01DX001 (iv), vehicle: saline, higher = longer survival",92 % of control
same,T/C,"endpoint: median survival time, dose: 37.5 mg/kg/injection, schedule: Q07DX002 (iv), vehicle: saline, higher = longer survival",110 % of control
same,T/C,"endpoint: median survival time, dose: 50.0 mg/kg/injection, schedule: Q01DX001 (iv), vehicle: saline, higher = longer survival",96 % of control
same,T/C,"endpoint: median survival time, dose: 112.5 mg/kg/injection, schedule: Q01DX001 (ip), vehicle: saline, higher = longer survival",89 % of control
same,T/C,"endpoint: median survival time, dose: 112.5 mg/kg/injection, schedule: Q07DX002 (ip), vehicle: saline, higher = longer survival",90 % of control and 120 % of control
same,T/C,"endpoint: median survival time, dose: 150.0 mg/kg/injection, schedule: Q01DX001 (ip), vehicle: saline, higher = longer survival",96 % of control and 99 % of control
same,T/C,"endpoint: median survival time, dose: 150.0 mg/kg/injection, schedule: Q07DX002 (ip), vehicle: saline, higher = longer survival",167 % of control and 218 % of control
same,T/C,"endpoint: median survival time, dose: 200.0 mg/kg/injection, schedule: Q07DX002 (ip), vehicle: saline, higher = longer survival",220 % of control and 238 % of control
same,T/C,"endpoint: median survival time, dose: 266.7 mg/kg/injection, schedule: Q01DX001 (ip), vehicle: saline, higher = longer survival",171 % of control and 176 % of control
same,T/C,"endpoint: median survival time, dose: 266.7 mg/kg/injection, schedule: Q07DX002 (ip), vehicle: saline, higher = longer survival",220 % of control and 238 % of control
same,T/C,"endpoint: median survival time, dose: 355.6 mg/kg/injection, schedule: Q01DX001 (ip), vehicle: saline, higher = longer survival",220 % of control and 232 % of control
same,T/C,"endpoint: median tumor weight (est.), dose: 21.09 mg/kg/injection, schedule: Q07DX002 (iv), vehicle: saline, higher = larger tumour",86 % of control
same,T/C,"endpoint: median tumor weight (est.), dose: 26.7 mg/kg/injection, schedule: Q03HX024 (ip), vehicle: saline, higher = larger tumour",115 % of control
same,T/C,"endpoint: median tumor weight (est.), dose: 28.13 mg/kg/injection, schedule: Q01DX001 (iv), vehicle: saline, higher = larger tumour",77 % of control and 89 % of control
same,T/C,"endpoint: median tumor weight (est.), dose: 35.6 mg/kg/injection, schedule: Q03HX024 (ip), vehicle: saline, higher = larger tumour",155 % of control
same,T/C,"endpoint: median tumor weight (est.), dose: 35.6 mg/kg/injection, schedule: Q06HX016 (ip), vehicle: saline, higher = larger tumour",86 % of control
same,T/C,"endpoint: median tumor weight (est.), dose: 37.5 mg/kg/injection, schedule: Q01DX001 (iv), vehicle: saline, higher = larger tumour",107 % of control
same,T/C,"endpoint: median tumor weight (est.), dose: 47.5 mg/kg/injection, schedule: Q01DX008 (ip), vehicle: saline, higher = larger tumour",79 % of control
same,T/C,"endpoint: median tumor weight (est.), dose: 47.5 mg/kg/injection, schedule: Q03HX006 (ip), vehicle: saline, higher = larger tumour",117 % of control
same,T/C,"endpoint: median tumor weight (est.), dose: 47.5 mg/kg/injection, schedule: Q03HX024 (ip), vehicle: saline, higher = larger tumour",83 % of control
same,T/C,"endpoint: median tumor weight (est.), dose: 47.5 mg/kg/injection, schedule: Q06HX016 (ip), vehicle: saline, higher = larger tumour",75 % of control
same,T/C,"endpoint: median tumor weight (est.), dose: 50.0 mg/kg/injection, schedule: Q01DX001 (iv), vehicle: saline, higher = larger tumour",50 % of control
same,T/C,"endpoint: median tumor weight (est.), dose: 63.3 mg/kg/injection, schedule: Q03HX006 (ip), vehicle: saline, higher = larger tumour",63 % of control
same,T/C,"endpoint: median tumor weight (est.), dose: 63.3 mg/kg/injection, schedule: Q06HX016 (ip), vehicle: saline, higher = larger tumour",93 % of control
same,T/C,"endpoint: median tumor weight (est.), dose: 84.4 mg/kg/injection, schedule: Q01DX008 (ip), vehicle: saline, higher = larger tumour",111 % of control
same,T/C,"endpoint: median tumor weight (est.), dose: 84.4 mg/kg/injection, schedule: Q03HX006 (ip), vehicle: saline, higher = larger tumour",63 % of control
same,T/C,"endpoint: median tumor weight (est.), dose: 84.4 mg/kg/injection, schedule: Q06HX004 (ip), vehicle: saline, higher = larger tumour",75 % of control
same,T/C,"endpoint: median tumor weight (est.), dose: 84.4 mg/kg/injection, schedule: Q06HX016 (ip), vehicle: saline, higher = larger tumour",63 % of control
same,T/C,"endpoint: median tumor weight (est.), dose: 84.4 mg/kg/injection, schedule: Q07DX002 (ip), vehicle: saline, higher = larger tumour",60 % of control
same,T/C,"endpoint: median tumor weight (est.), dose: 112.5 mg/kg/injection, schedule: Q01DX008 (ip), vehicle: saline, higher = larger tumour",73 % of control
same,T/C,"endpoint: median tumor weight (est.), dose: 112.5 mg/kg/injection, schedule: Q03HX006 (ip), vehicle: saline, higher = larger tumour",18 % of control
same,T/C,"endpoint: median tumor weight (est.), dose: 112.5 mg/kg/injection, schedule: Q06HX004 (ip), vehicle: saline, higher = larger tumour",60 % of control
same,T/C,"endpoint: median tumor weight (est.), dose: 150.0 mg/kg/injection, schedule: Q06HX004 (ip), vehicle: saline, higher = larger tumour",54 % of control
same,T/C,"endpoint: median tumor weight (est.), dose: 200.0 mg/kg/injection, schedule: Q01DX001 (ip), vehicle: saline, higher = larger tumour",20 % of control and 22 % of control
same,T/C,"endpoint: median tumor weight (est.), dose: 200.0 mg/kg/injection, schedule: Q06HX004 (ip), vehicle: saline, higher = larger tumour",9 % of control
same,T/C,"endpoint: median tumor weight (est.), dose: 200.0 mg/kg/injection, schedule: Q07DX002 (ip), vehicle: saline, higher = larger tumour",4 % of control and 9 % of control
same,T/C,"endpoint: median tumor weight (est.), dose: 266.7 mg/kg/injection, schedule: Q01DX001 (ip), vehicle: saline, higher = larger tumour",7 % of control and 13 % of control
O=C(C/C(=N\C(=S)Nc1cc(C(F)(F)F)ccc1Cl)NO)N1CCCC1,T/C,[1],85 % of control
same,T/C,[2],57 % of control
same,T/C,[3],70 % of control
same,T/C,[4],100 % of control
O=C1SC(c2ccccc2)=S=C1c1ccccc1,T/C,[1],152 % of control
same,T/C,[2],114 % of control
same,T/C,[3],104 % of control
same,T/C,[4],120 % of control
same,T/C,[5],104 % of control
C[CH2][Sn]([CH2]C)([CH2]C(=O)OC)[CH2]C(=O)OC,T/C,"endpoint: median tumor weight (est.), dose: 1.56 mg/kg/injection, schedule: Q07DX002 (ip), vehicle: saline with Tween-80, higher = larger tumour",51 % of control
same,T/C,"endpoint: median tumor weight (est.), dose: 3.12 mg/kg/injection, schedule: Q07DX002 (ip), vehicle: saline with Tween-80, higher = larger tumour",113 % of control
same,T/C,"endpoint: median tumor weight (est.), dose: 6.25 mg/kg/injection, schedule: Q07DX002 (ip), vehicle: saline with Tween-80, higher = larger tumour",109 % of control
same,T/C,"endpoint: median tumor weight (est.), dose: 12.5 mg/kg/injection, schedule: Q07DX002 (ip), vehicle: saline with Tween-80, higher = larger tumour",65 % of control
same,T/C,"endpoint: median tumor weight (est.), dose: 25.0 mg/kg/injection, schedule: Q07DX002 (ip), vehicle: saline with Tween-80, higher = larger tumour",74 % of control
COc1cc2c(ccc3c4cc(OC)c(OC)cc4c[n+](C)c23)cc1O,T/C,"endpoint: median tumor weight (est.), dose: 100.0 mg/kg/injection, schedule: Q07DX002 (ip), vehicle: suspension in saline, higher = larger tumour",89 % of control
same,T/C,"endpoint: median tumor weight (est.), dose: 200.0 mg/kg/injection, schedule: Q07DX002 (ip), vehicle: suspension in saline, higher = larger tumour",81 % of control
COC(=O)C[C@](O)(CCC(C)(C)O)C(=O)O[C@@H]1C(OC)=C[C@]23CCCN2CCc2cc4c(cc2[C@H]13)OCO4,T/C,"endpoint: median tumor weight (est.), dose: 0.5 mg/kg/injection, schedule: Q07DX002 (ip), vehicle: saline, higher = larger tumour",117 % of control
same,T/C,"endpoint: median tumor weight (est.), dose: 1.0 mg/kg/injection, schedule: Q07DX002 (ip), vehicle: saline, higher = larger tumour",54 % of control
same,T/C,"endpoint: median tumor weight (est.), dose: 2.0 mg/kg/injection, schedule: Q07DX002 (ip), vehicle: saline, higher = larger tumour",40 % of control
same,T/C,"endpoint: median tumor weight (est.), dose: 4.0 mg/kg/injection, schedule: Q07DX002 (ip), vehicle: saline, higher = larger tumour",14 % of control
N=c1c(C(=O)OCc2ccccc2)ncc(CCl)n1O,T/C,[1],76 % of control
same,T/C,[2],107 % of control
same,T/C,[4],113 % of control
same,T/C,[5],72 % of control
COc1ccc2cc1Oc1ccc(cc1)C[C@H]1c3cc(c(OC)cc3CCN1C)Oc1c(OC)c(OC)cc3c1[C@H](C2)N(C)CC3,T/C,"endpoint: median tumor weight (est.), dose: 150.0 mg/kg/injection, schedule: Q07DX002 (ip), vehicle: saline with Tween-80, higher = larger tumour",102 % of control and 106 % of control
same,T/C,"endpoint: median tumor weight (est.), dose: 300.0 mg/kg/injection, schedule: Q07DX002 (ip), vehicle: saline with Tween-80, higher = larger tumour",57 % of control
same,T/C,"endpoint: median tumor weight (est.), dose: 600.0 mg/kg/injection, schedule: Q07DX002 (ip), vehicle: saline with Tween-80, higher = larger tumour",29 % of control
CCC(/C=C/C1OC(=O)C=CC1C)=C\C(C)C/C=C/C(C)=C/C(C)C(=O)C(C)C(O)C(C)C/C(C)=C/C(=O)O (stereo unspecified),T/C,"endpoint: median tumor weight (est.), dose: 100.0 micrograms/kg/injection, schedule: Q07DX002 (ip), vehicle: other, higher = larger tumour",56 % of control
same,T/C,"endpoint: median tumor weight (est.), dose: 200.0 micrograms/kg/injection, schedule: Q07DX002 (ip), vehicle: other, higher = larger tumour",105 % of control
same,T/C,"endpoint: median tumor weight (est.), dose: 400.0 micrograms/kg/injection, schedule: Q07DX002 (ip), vehicle: other, higher = larger tumour",85 % of control
same,T/C,"endpoint: median tumor weight (est.), dose: 800.0 micrograms/kg/injection, schedule: Q07DX002 (ip), vehicle: other, higher = larger tumour",102 % of control
same,T/C,"endpoint: median tumor weight (est.), dose: 1600.0 micrograms/kg/injection, schedule: Q07DX002 (ip), vehicle: other, higher = larger tumour",98 % of control
O=C(O)CC(=O)O.[NH-]CC[NH-].[Pt+2],T/C,"endpoint: median tumor weight (est.), dose: 28.13 mg/kg/injection, schedule: Q07DX002 (ip), vehicle: dextrose, higher = larger tumour",59 % of control
same,T/C,"endpoint: median tumor weight (est.), dose: 56.25 mg/kg/injection, schedule: Q07DX002 (ip), vehicle: dextrose, higher = larger tumour",81 % of control
